Several values for one entry are separate records, joined by “and”; a condition that tells them apart may be missing. Identical values can stand only once. Some results are limits rather than exact numbers.

Experiment [1] addresses T1, SARS-CoV PLpro (Severe acute respiratory syndrome coronavirus, UniProt P0C6U8). Kind of experiment: biochemical. The experiment is classed as biochemical.
In another experiment the target is T2, papain (Carica papaya, UniProt P00784).
T2 sequence (P00784 134-345): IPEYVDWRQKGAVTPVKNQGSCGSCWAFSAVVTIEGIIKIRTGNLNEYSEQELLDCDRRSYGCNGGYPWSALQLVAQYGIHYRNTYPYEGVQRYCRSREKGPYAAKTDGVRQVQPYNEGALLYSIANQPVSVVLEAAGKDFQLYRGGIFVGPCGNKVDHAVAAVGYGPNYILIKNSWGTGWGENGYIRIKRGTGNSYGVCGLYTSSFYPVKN
The experiment is classed as biochemical.

The target of another experiment is cathepsin B (Homo sapiens, UniProt P07858). The experiment is classed as biochemical.
In experiment [2] the target is T1, SARS-CoV PLpro. Kind of experiment: biochemical. Type of experiment: biochemical. The following applies: for remaining activity at 200 µM: read-out: residual activity of PLpro.
The target of the next experiment is SARS-CoV 3CLpro (Severe acute respiratory syndrome coronavirus, UniProt P0C6U8). The experiment is described as follows: biochemical. The settings on record: read-out: residual activity of 3CLpro.
The target of experiment [3] is T1, SARS-CoV PLpro. Type of experiment: biochemical.
Experiment [4] addresses T1, SARS-CoV PLpro. Type of experiment: biochemical. This is another data set of the same source.
A further experiment has as its target cathepsin L (Homo sapiens, UniProt P07711). The experiment is classed as biochemical.
The next experiment addresses T3, cathepsin K (Homo sapiens, UniProt P43235).
T3 sequence (P43235 115-329): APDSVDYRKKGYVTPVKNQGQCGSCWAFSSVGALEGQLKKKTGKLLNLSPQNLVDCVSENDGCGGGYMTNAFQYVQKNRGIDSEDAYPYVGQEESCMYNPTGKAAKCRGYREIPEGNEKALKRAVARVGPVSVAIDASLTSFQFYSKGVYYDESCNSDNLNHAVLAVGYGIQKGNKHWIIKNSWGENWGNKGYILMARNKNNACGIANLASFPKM
Type of experiment: biochemical.

Experiment [5] concerns the target T1, SARS-CoV PLpro. The experiment is described as follows: biochemical. The experiment is classed as biochemical. The settings on record: for Ki: Kis.
The target of another experiment is cathepsin S (Homo sapiens, UniProt P25774). Type of experiment: biochemical.
Chain of cathepsin S (P25774 115-331): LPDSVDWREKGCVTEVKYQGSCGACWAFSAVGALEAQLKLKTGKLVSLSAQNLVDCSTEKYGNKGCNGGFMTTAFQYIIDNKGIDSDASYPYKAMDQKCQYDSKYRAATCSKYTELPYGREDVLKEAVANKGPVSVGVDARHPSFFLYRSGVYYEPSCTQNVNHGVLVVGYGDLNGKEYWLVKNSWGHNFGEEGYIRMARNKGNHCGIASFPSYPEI

Chain of cathepsin L (P07711 114-333, species assumed): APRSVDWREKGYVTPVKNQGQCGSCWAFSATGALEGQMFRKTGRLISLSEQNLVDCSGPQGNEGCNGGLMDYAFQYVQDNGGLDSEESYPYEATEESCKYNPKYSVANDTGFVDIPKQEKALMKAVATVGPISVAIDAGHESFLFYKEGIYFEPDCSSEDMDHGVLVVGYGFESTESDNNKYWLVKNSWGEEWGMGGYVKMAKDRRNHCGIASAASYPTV

For `CSc1ncnc2nc[nH]c12` [compound 4, 6-Methyl-mercaptopurine], the “inhibitory activity against PLpro” value against SARS-CoV PLpro [1] is “devoid of inhibitory activity”.

As a reminder, the IC50 is the midpoint of a concentration-inhibition curve. Low values mean greater potency, high ones weaker potency. For orientation: kcat means the maximal rate divided by the concentration of active sites. As usually defined, the Ki is the dissociation constant of the complex between target and ligand, obtained from inhibition or displacement. Turning to `Nc1nc2nc[nH]c2c(=S)[nH]1` [compound 2, 6-Thioguanine], the inhibition of papain entry at papain was “not effective inhibitors”. The “inhibition of cathepsin B” value against cathepsin B was “not effective inhibitors”. Also, on SARS-CoV PLpro [2], the binding mechanism entry was “slow-binding inhibitors”, the kmax was 9.2 ± 0.9 10^−4 s^−1, the kmax of inactivation turned out to be 0.92 ms^−1 and the remaining activity at 200 µM was below 5%. Besides, on SARS-CoV 3CLpro, the remaining activity at 200 µM was found to be 25%. Further, the “enzymatic activity after gel filtration of the inhibited enzyme (reversibility)” value on SARS-CoV PLpro [3] was “restored”. Also, the “inhibition of the deubiquitinating activity of PLpro” value at SARS-CoV PLpro [4] was “effectively inhibited”. Moreover, the “inhibition of cathepsin L” value at cathepsin L is listed as “not effective inhibitors”. Besides, at SARS-CoV PLpro [1], the IC50 amounted to 5 ± 1.7 µM. The “inhibition of cathepsin K” value against cathepsin K is given as “not effective inhibitors”. Moreover, on SARS-CoV PLpro [5], the inhibition pattern entry was “competitive”, the kcat amounted to 0.14 ± 0.02 s⁻¹ and the affinity corresponds to a Ki of 13 ± 2.8 µM. Moreover, at cathepsin S, the “inhibition of cathepsin S” value was “not effective inhibitors”.

Take `O=c1[nH]cnc2nc[nH]c12` [compound 3, Hypoxanthine]: the “inhibitory activity against PLpro” value against SARS-CoV PLpro [1] is reported as “devoid of inhibitory activity”.

In the case of `CCN1C(=O)C=CC1=O` [compound 6, N-ethylmaleimide], inhibition on SARS-CoV PLpro [1] was half-maximal at 4.4 ± 1 µM (IC50).

Take `Sc1ncnc2nc[nH]c12` [compound 1, 6-Mercaptopurine]: the inhibition of papain result against papain is listed as “not effective inhibitors”. Also, the “inhibition of cathepsin B” value against cathepsin B is recorded as “not effective inhibitors”. On SARS-CoV PLpro [2], the binding mechanism result is given as “slow-binding inhibitors”, the kmax is on record as 1.2 ± 0.1 10^−4 s^−1, the kmax of inactivation is 0.12 ms^−1 and the remaining activity at 200 µM was below 5%. In addition, the “enzymatic activity after gel filtration of the inhibited enzyme (reversibility)” value at SARS-CoV PLpro [3] is given as “restored”. Moreover, the “inhibition of the deubiquitinating activity of PLpro” value on SARS-CoV PLpro [4] is reported as “effectively inhibited”. The “inhibition of cathepsin L” value at cathepsin L is given as “not effective inhibitors”. At SARS-CoV PLpro [1], this compound showed an IC50 of 21.6 ± 1.8 µM. Besides, at cathepsin K, the “inhibition of cathepsin K” value is recorded as “not effective inhibitors”. Besides, at SARS-CoV PLpro [5], the inhibition pattern entry is recorded as “competitive”; the catalytic constant (kcat) was 0.13 ± 0.01 s⁻¹; the Ki is 19 µM and 19.2 µM. Besides, the “inhibition of cathepsin S” value against cathepsin S is on record as “not effective inhibitors”.
